Read-outs that look alike come from different tables or passages of the source.
Tests used:
[1] = system: Salmonella typhimurium TA100
Method: (§1) In the preincubation experiment, test compounds and mutagen, each having a volume of 0.1 mL of varying concentrations, were preincubated at 37°C for 30 min and then 0.1 mL of 1 × 10^7 CFU/mL density of the bacterial culture was added, followed by the addition of 2.5 mL of top agar at 45°C (containing 0.5% NaCl and 0.6% agar) supplemented with 0.5 mM histidine-biotin. […] The combined solutions were vortexed and poured onto minimal glucose plates (40% glucose solution and Vogel Bonner medium). The plates were incubated at 37°C for 48 h and the numbers of histidine-independent revertants colonies were scored.
(§2) Survival of the bacteria was routinely monitored for each experiment. Parallel controls were run with compounds alone at all concentrations to test the possible toxicity. The concentrations of the test samples for investigating the antimutagenicity were 50, 100, 200, and 500 μM. […] All the test samples and mutagens were dissolved in DMSO (final conc., 0.01%). […] Plates were set up in triplicate for each concentration and the entire experiment was repeated three times. Inhibition of mutagenicity was expressed as percentage decrease of reverse mutation and calculated as (1) Percent inhibition=[(a−b)/(a−c)]×100, where a = number of histidine revertants induced by mutagen, b = number of histidine revertants induced by mutagen in the presence of test compound, and c = number of revertants induced in negative control.

[2] = system: Salmonella typhimurium strains TA97a, TA98, TA100, and TA102; experiment: Ames test, statements over all tester strains
Method: as §1, §2

[3] = system: Salmonella typhimurium TA98
Method: as §1, §2

[4] = system: Salmonella typhimurium TA102
Method: as §1, §2

[5] = system: Salmonella typhimurium TA97a; experiment: Ames antimutagenicity assay (preincubation); conditions: Salmonella enterica, TYPHIMURIUM;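 also: compound and mutagen preincubated together 30 min at 37 °C before adding bacteria, then plated on minimal glucose agar for 48 h and His+ revertant colonies counted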
Method: as §1, §2

O=C1O[C@H]2[C@@H]3OC(=O)c4cc(O)c(O)c(O)c4-c4c(O)c(O)c5oc(=O)c6c(c(O)c(O)c7oc(=O)c4c5c76)-c4c(cc(O)c(O)c4O)C(=O)OC[C@H]3OC(O)[C@@H]2OC(=O)c2cc(O)c(O)c(O)c2-c2c1cc(O)c(O)c2O (mixture of isomers) [Punicalagin]
Number of His+ revertants colonies/plate ([1]; Salmonella typhimurium): 175.3 ± 14.3 colonies/plate | Number of His+ revertants colonies/plate ([1]; TA 100, 50 μM alone (negative control), 2AF tables): 136.0 ± 11.7 colonies/plate | Number of His+ revertants colonies/plate ([1]; TA 100, 50 μM alone (negative control), BP tables): 136.0 ± 11.7 colonies/plate | Number of His+ revertants colonies/plate ([1]; TA 100, 50 μM alone (negative control), MMS tables): 189.7 ± 12.0 colonies/plate | Number of His+ revertants colonies/plate ([1]; TA 100, 50 μM alone (negative control), NaN3 tables): 189.7 ± 12.0 colonies/plate | Number of His+ revertants colonies/plate ([1]; TA 100, 100 μM alone (negative control), 2AF tables): 162.7 ± 15.0 colonies/plate | Number of His+ revertants colonies/plate ([1]; TA 100, 100 μM alone (negative control), BP tables): 162.7 ± 15.0 colonies/plate | Number of His+ revertants colonies/plate ([1]; TA 100, 100 μM alone (negative control), MMS tables): 181.0 ± 7.4 colonies/plate | Number of His+ revertants colonies/plate ([1]; TA 100, 100 μM alone (negative control), NaN3 tables): 181.0 ± 7.4 colonies/plate | Number of His+ revertants colonies/plate ([1]; TA 100, 250 μM alone (negative control), BP tables): 175.3 ± 14.3 colonies/plate | Number of His+ revertants colonies/plate ([1]; TA 100, 250 μM alone (negative control), MMS tables): 165.3 ± 5.4 colonies/plate | Number of His+ revertants colonies/plate ([1]; TA 100, 250 μM alone (negative control), NaN3 tables): 165.3 ± 5.4 colonies/plate | Number of His+ revertants colonies/plate ([1]; TA 100, 500 μM alone (negative control), 2AF tables): 191.0 ± 15.0 colonies/plate | Number of His+ revertants colonies/plate ([1]; TA 100, 500 μM alone (negative control), BP tables): 191.0 ± 15.0 colonies/plate | Number of His+ revertants colonies/plate ([1]; TA 100, 500 μM alone (negative control), MMS tables): 187.7 ± 9.8 colonies/plate | Number of His+ revertants colonies/plate ([1]; TA 100, 500 μM alone (negative control), NaN3 tables): 187.7 ± 9.8 colonies/plate | toxicity to Salmonella typhimurium strains ([2]; 50–500 μM, absence of S9): No toxicity | inhibition at 500 µM ([2]; Salmonella enterica, TYPHIMURIUM, read-out: inhibition of 2AF- and BP-induced mutagenicity (range over strains)): 76.7 to 85% | mutagenic activity ([2]; TA97a, TA98, TA100, TA102, with or without S9, plate incorporation assay): No mutagenic activity | maximum inhibition of mutagenicity ([2]; against sodium azide, MMS, BP, 2AF, 50–500 μM): up to 90% | Number of His+ revertants colonies/plate ([3]; Salmonella typhimurium): 31.0 ± 1.7 colonies/plate | Number of His+ revertants colonies/plate ([3]; TA 98, 50 μM alone (negative control), 2AF tables): 40.7 ± 2.9 colonies/plate | Number of His+ revertants colonies/plate ([3]; TA 98, 50 μM alone (negative control), BP tables): 40.7 ± 2.9 colonies/plate | Number of His+ revertants colonies/plate ([3]; TA 98, 50 μM alone (negative control), MMS tables): 42.3 ± 1.8 colonies/plate | Number of His+ revertants colonies/plate ([3]; TA 98, 50 μM alone (negative control), NaN3 tables): 42.3 ± 1.8 colonies/plate | Number of His+ revertants colonies/plate ([3]; TA 98, 100 μM alone (negative control), 2AF tables): 36.3 ± 1.8 colonies/plate | Number of His+ revertants colonies/plate ([3]; TA 98, 100 μM alone (negative control), BP tables): 36.3 ± 1.8 colonies/plate | Number of His+ revertants colonies/plate ([3]; TA 98, 100 μM alone (negative control), MMS tables): 35.7 ± 1.8 colonies/plate | Number of His+ revertants colonies/plate ([3]; TA 98, 100 μM alone (negative control), NaN3 tables): 35.7 ± 1.8 colonies/plate | Number of His+ revertants colonies/plate ([3]; TA 98, 250 μM alone (negative control), BP tables): 31.0 ± 1.7 colonies/plate | Number of His+ revertants colonies/plate ([3]; TA 98, 250 μM alone (negative control), MMS tables): 30.0 ± 1.2 colonies/plate | Number of His+ revertants colonies/plate ([3]; TA 98, 250 μM alone (negative control), NaN3 tables): 30.0 ± 1.2 colonies/plate | Number of His+ revertants colonies/plate ([3]; TA 98, 500 μM alone (negative control), 2AF tables): 22.3 ± 1.8 colonies/plate | Number of His+ revertants colonies/plate ([3]; TA 98, 500 μM alone (negative control), BP tables): 22.3 ± 1.8 colonies/plate | Number of His+ revertants colonies/plate ([3]; TA 98, 500 μM alone (negative control), MMS tables): 27.3 ± 2.0 colonies/plate | Number of His+ revertants colonies/plate ([3]; TA 98, 500 μM alone (negative control), NaN3 tables): 27.3 ± 2.0 colonies/plate | Number of His+ revertants colonies/plate ([4]; Salmonella typhimurium): 356.0 ± 10.4 colonies/plate | Number of His+ revertants colonies/plate ([4]; TA 102, 50 μM alone (negative control), 2AF tables): 320.0 ± 21.9 colonies/plate | Number of His+ revertants colonies/plate ([4]; TA 102, 50 μM alone (negative control), BP tables): 320.0±21.9 colonies/plate | Number of His+ revertants colonies/plate ([4]; TA 102, 50 μM alone (negative control), MMS tables): 292.0 ± 7.7 colonies/plate | Number of His+ revertants colonies/plate ([4]; TA 102, 50 μM alone (negative control), NaN3 tables): 306.7 ± 13.3 colonies/plate | Number of His+ revertants colonies/plate ([4]; TA 102, 100 μM alone (negative control), 2AF tables): 341.0 ± 18.3 colonies/plate | Number of His+ revertants colonies/plate ([4]; TA 102, 100 μM alone (negative control), BP tables): 341.0 ± 18.3 colonies/plate | Number of His+ revertants colonies/plate ([4]; TA 102, 100 μM alone (negative control), MMS tables): 278.0 ± 12.8 colonies/plate | Number of His+ revertants colonies/plate ([4]; TA 102, 100 μM alone (negative control), NaN3 tables): 275.3 ± 22.1 colonies/plate | Number of His+ revertants colonies/plate ([4]; TA 102, 250 μM alone (negative control), BP tables): 356.0 ± 10.4 colonies/plate | Number of His+ revertants colonies/plate ([4]; TA 102, 250 μM alone (negative control), MMS tables): 255.0 ± 13.2 colonies/plate | Number of His+ revertants colonies/plate ([4]; TA 102, 250 μM alone (negative control), NaN3 tables): 250.0 ± 22.9 colonies/plate | Number of His+ revertants colonies/plate ([4]; TA 102, 500 μM alone (negative control), 2AF tables): 358.0 ± 19.9 colonies/plate | Number of His+ revertants colonies/plate ([4]; TA 102, 500 μM alone (negative control), BP tables): 358.0 ± 19.9 colonies/plate | Number of His+ revertants colonies/plate ([4]; TA 102, 500 μM alone (negative control), MMS tables): 254.0 ± 14.3 colonies/plate | Number of His+ revertants colonies/plate ([4]; TA 102, 500 μM alone (negative control), NaN3 tables): 231.7 ± 24.8 colonies/plate | inhibition at 50 µM ([5]; read-out: % inhibition of mutagenicity, TA 97a, 50 μM + 2AF, S9): 15.7% | inhibition at 50 µM ([5]; read-out: % inhibition of mutagenicity, TA 97a, 50 μM + BP, S9): 15.1% | inhibition at 50 µM ([5]; read-out: % inhibition of mutagenicity, TA 97a, 50 μM + MMS, no S9): 10.2% | inhibition at 50 µM ([5]; read-out: % inhibition of mutagenicity, TA 97a, 50 μM + NaN3, no S9): 10.2% | inhibition at 100 µM ([5]; read-out: % inhibition of mutagenicity, TA 97a, 100 μM + 2AF, S9): 37.1% | inhibition at 100 µM ([5]; read-out: % inhibition of mutagenicity, TA 97a, 100 μM + BP, S9): 34.3% | inhibition at 100 µM ([5]; read-out: % inhibition of mutagenicity, TA 97a, 100 μM + MMS, no S9): 19.9% | inhibition at 100 µM ([5]; read-out: % inhibition of mutagenicity, TA 97a, 100 μM + NaN3, no S9): 34.2% | inhibition at 250 µM ([5]; read-out: % inhibition of mutagenicity, TA 97a, 250 μM + BP, S9): 53.5% | inhibition at 250 µM ([5]; read-out: % inhibition of mutagenicity, TA 97a, 250 μM + MMS, no S9): 42.4% | inhibition at 250 µM ([5]; read-out: % inhibition of mutagenicity, TA 97a, 250 μM + NaN3, no S9): 54.9% | inhibition at 500 µM ([5]; read-out: % inhibition of mutagenicity, TA 97a, 500 μM + 2AF, S9): 78.5%

— article PMC4052943 (BioMed Research International, 2014)
